pIC50: −log10 of the molar value. Entries after “also recorded” stand apart in the source; their conditions may differ. Where only a bound is given, the exact number is not on record here.

In data set [1] the test system is CCI-induced TBI mice. Nature of the data set: CCI mouse model of TBI: brain lesion and lateral ventricle size (Giemsa). The class given is in vivo. The procedure:
(§1) In vivo model of TBI: Mice were anesthetized with 2.5% tribromoethanol (Avertin: 250 mg/kg; Sigma, St. Louis, MO, USA) and placed in a stereotaxic frame (Kopf Instruments, Tujunga, CA, USA). A 4 mm craniotomy was performed using sterile procedures; the craniotomy point was selected midway between the lambda and bregma sutures and laterally midway between the central suture and the temporalis muscle. The skull fragment was then carefully removed without disruption of the underlying dura. Prior to injury induction, the tip of the impactor was angled and kept perpendicular to the exposed cortical surface. The mouse CCI instrument consisted of an electromagnetic impactor, Impact One (Leica Biosystems Inc., Buffalo Grove, IL, USA) that allows independent alteration of injury severity by controlling contact velocity and the level of cortical deformation. In these experiments, the contact velocity was set at 5.0 m/sec, the dwell time was set at 0.2 s and the deformation depth was set at 2 mm to produce a moderate TBI. The injury site was allowed to dry prior to suturing the wound. During surgery and recovery, the body temperature of the animals was maintained at 36-37° C. by using a heating pad. […] Mice were randomized following CCI to treatment with either of two doses of TFBP (16.25 mg/kg and 32.5 mg/kg, i.p.) or saline, and were dosed at 1 and 24 hr after the injury.
Tissue processing: Two weeks after injury, mice were deeply anesthetized with isoflurane and perfused transcardially with 30 ml phosphate buffered saline (PBS). After removal, the brain was post-fixed with 4% PFA overnight then transferred to a 30% sucrose solution in PBS. […]
Quantification of brain lesion and lateral ventricle size in TBI animals: One set of brain sections 2-weeks post-CCI were mounted on slides. […] Brain image regions were quantified using ImageJ 1.52q software (National Institutes of Health, Bethesda, MD). […] There were 9 brain sections from each mouse counted by blinded observers, with regions starting from bregma at 0.86 to −1.46 mm.
(§2) In Vivo Model of TBI: TBI studies were conducted in 8-week-old male C57/BL6 mice (25-30 g; n=20), Jackson Laboratory, Bar Harbor, Maine USA. Mice were randomly assigned to four groups prior surgery, CMC+Sham, CMC+TBI, compound 30 (Low dose (LD), 14.78 mg/kg, prepared in 1% CMC in PBS)+TBI, compound 30 (High dose (HD), 29.57 mg/kg)+TBI, and evaluated the effects of compound 30 on TBI. Mice were assessed for gait function and motor coordination, balance function. Animals were subsequently evaluated for cellular changes using histological and immunohistochemistry staining. […]

Data set [2] concerns CCI-induced TBI mice. Nature of the data set: CCI mouse model of TBI: Iba1 microglia / GFAP astrocyte immunofluorescence (MotiQ). It is filed as in vivo. On the procedure:
as §1
Tissue processing: Two weeks after injury, mice were deeply anesthetized with isoflurane and perfused transcardially with 30 ml phosphate buffered saline (PBS). After removal, the brain was post-fixed with 4% PFA overnight then transferred to a 30% sucrose solution in PBS. Coronal sections from the dorsal hippocampus and the posterior parietal cortex were cryosectioned at 25 μm thickness and stored in cryoprotectant solution for Giemsa staining and immunohistochemical analysis.
Immunofluorescence analysis: For GFAP and Iba1 quantification, brain samples were incubated overnight with either one of the following primary antibodies: anti-GFAP 1:2500 dilution (chicken polyclonal, Abcam, USA, cat #ab4674) or anti-Iba1 1:200 dilution (guinea pig polyclonal anti-Iba1, Synaptic System, USA, cat #234004). After PBS washing, sections were incubated for 1 hr at RT with a goat anti-chicken AlexaFluor® 488-conjugated secondary antibody IgY (H+L) 1:500 dilution (ThermoFisher, USA, cat #A-21432) for detection of GFAP, and with a Goat anti-Guinea Pig IgG (H+L) Highly Cross-Adsorbed Secondary Antibody, Alexa Fluor™ 555, ThermoFisher, USA, cat #A-21435) for detection of Iba1. Sections were washed in PBS and mounted with […]® Antifade Mounting Medium with DAPI (Vectorlabs, USA, cat #H-1200). Controls consisted of omission of the primary antibody. […] Multiple parameters were analyzed, including ramification index, spanned area, number of branches, junctions and endpoints.
as §2

The next data set deals with RAW 264.7 cells. The data set can be described thus: Cell viability of drug treated RAW 264.7 cells (CellTiter 96 AQueous One, MTS).
Data set [3] addresses cereblon (CRBN/DDB1-CUL4A-Rbx1 complex) / BRD3 (Homo sapiens (Human), UniProt Q96SW2). The data set can be described thus: Cereblon/BRD3 binding assay (AlphaScreen / FRET). The note with it: for pIC50: Example 5, FIG. 20A; for cereblon binding (in words): cereblon/BRD3 binding FRET assay. On the procedure: After 30 min of incubation with shaking at room temperature, AlphaLISA anti-FLAG Acceptor and Alpha Glutathione Donor beads (PerkinElmer) were sequentially added and then incubated for 1 hr at room temperature for each of the added chemicals. Alpha counts were thereafter read on a Synergy Neo2 (BioTek) for the analysis. Relative activity or inhibition was calculated as the highest value, which was set to 100%, and the lowest value was set to 0% after subtraction of the “blank value” from all readings.
After 30 min of incubation with shaking at room temperature, AlphaLISA anti-FLAG Acceptor and Alpha Glutathione Donor beads (PerkinElmer) were sequentially added and then incubated for 1 h at room temperature for each of the added chemicals. Alpha counts were thereafter read on a Synergy Neo2 (BioTek) for the analysis. The relative activity of the alpha signal was calculated after subtraction of the “blank value” from all readings, and the value of the vehicle group was then set as 100%.
(In Alpha technology, singlet oxygen from a donor bead excites a nearby acceptor bead.)

Another data set has as its system IFN-γ. The data set can be described thus: LPS model of inflammation in rats: IFN-γ in plasma and cortex. It is filed as in vivo, rat. The note with it: LPS-challenged rats; for IFN-γ in plasma (in words): low and high dose.
A further data set concerns IL-5. Nature of the data set: LPS model of inflammation in rats: IL-5 in plasma and cortex. It is filed as in vivo, rat. The note with it: both doses; LPS-challenged rats.

Chain of cereblon (CRBN/DDB1-CUL4A-Rbx1 complex) / BRD3 (Q96SW2 whole entry): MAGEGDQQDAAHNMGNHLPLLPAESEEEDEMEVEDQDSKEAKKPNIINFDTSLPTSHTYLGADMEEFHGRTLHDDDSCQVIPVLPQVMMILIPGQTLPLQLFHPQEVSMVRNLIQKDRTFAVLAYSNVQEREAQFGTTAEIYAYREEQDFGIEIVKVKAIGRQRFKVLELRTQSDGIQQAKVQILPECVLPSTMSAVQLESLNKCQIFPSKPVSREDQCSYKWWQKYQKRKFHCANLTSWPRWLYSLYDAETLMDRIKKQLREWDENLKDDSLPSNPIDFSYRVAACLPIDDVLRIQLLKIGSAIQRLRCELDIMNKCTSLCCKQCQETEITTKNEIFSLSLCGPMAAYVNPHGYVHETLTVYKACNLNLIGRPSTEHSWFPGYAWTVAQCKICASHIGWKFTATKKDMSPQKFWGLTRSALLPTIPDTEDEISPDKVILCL
Chain of cereblon (CRBN/DDB1-CUL4A-Rbx1 complex) / BRD3 (Q16531 whole entry partner): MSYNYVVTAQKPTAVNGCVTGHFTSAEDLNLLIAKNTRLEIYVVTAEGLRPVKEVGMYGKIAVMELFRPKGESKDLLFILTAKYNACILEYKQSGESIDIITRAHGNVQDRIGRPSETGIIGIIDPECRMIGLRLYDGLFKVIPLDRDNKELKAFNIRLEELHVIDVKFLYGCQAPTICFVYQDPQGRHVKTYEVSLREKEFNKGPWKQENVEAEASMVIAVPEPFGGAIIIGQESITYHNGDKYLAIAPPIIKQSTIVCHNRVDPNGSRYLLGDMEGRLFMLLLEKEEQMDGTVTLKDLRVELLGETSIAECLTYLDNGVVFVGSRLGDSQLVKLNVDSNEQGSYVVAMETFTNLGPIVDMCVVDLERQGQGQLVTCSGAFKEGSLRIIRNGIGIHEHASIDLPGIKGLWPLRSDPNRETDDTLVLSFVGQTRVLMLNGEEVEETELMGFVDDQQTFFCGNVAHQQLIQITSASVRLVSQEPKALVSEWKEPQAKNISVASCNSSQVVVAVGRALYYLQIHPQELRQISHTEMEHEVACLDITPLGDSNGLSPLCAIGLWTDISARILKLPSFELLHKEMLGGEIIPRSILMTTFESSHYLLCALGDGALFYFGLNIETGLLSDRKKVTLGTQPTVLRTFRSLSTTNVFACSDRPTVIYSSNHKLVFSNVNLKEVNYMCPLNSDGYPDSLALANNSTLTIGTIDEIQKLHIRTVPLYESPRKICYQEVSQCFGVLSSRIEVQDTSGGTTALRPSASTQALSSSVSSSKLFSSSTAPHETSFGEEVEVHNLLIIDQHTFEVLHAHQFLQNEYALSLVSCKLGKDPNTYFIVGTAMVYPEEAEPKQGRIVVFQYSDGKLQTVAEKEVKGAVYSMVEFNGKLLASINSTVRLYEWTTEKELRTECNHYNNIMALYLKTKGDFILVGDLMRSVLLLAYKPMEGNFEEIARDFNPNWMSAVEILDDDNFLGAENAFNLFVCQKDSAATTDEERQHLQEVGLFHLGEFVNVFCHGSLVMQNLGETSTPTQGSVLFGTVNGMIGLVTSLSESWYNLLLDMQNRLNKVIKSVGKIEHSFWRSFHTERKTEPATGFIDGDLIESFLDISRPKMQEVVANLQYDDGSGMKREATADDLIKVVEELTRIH
Chain of cereblon (CRBN/DDB1-CUL4A-Rbx1 complex) / BRD3 (Q13619 whole entry partner): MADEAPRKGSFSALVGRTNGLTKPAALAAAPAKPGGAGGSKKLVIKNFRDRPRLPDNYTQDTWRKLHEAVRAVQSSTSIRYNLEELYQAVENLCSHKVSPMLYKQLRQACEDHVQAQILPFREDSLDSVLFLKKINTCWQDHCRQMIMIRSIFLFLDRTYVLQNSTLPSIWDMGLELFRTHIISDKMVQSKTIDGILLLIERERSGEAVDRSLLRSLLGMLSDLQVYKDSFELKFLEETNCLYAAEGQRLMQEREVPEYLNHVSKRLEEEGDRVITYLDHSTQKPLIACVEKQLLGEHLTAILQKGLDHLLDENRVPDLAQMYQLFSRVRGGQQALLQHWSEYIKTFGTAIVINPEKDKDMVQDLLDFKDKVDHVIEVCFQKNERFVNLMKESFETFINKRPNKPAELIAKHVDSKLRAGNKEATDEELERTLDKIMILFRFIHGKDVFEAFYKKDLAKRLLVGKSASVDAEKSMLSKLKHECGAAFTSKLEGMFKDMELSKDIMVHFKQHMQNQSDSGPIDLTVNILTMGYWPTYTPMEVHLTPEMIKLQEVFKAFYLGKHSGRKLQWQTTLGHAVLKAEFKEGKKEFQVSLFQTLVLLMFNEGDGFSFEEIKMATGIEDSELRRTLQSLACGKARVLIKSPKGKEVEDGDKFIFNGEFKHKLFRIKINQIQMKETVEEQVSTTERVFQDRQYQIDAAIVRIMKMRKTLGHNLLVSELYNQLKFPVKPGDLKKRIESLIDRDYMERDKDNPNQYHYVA
Chain of cereblon (CRBN/DDB1-CUL4A-Rbx1 complex) / BRD3 (P62877 whole entry partner): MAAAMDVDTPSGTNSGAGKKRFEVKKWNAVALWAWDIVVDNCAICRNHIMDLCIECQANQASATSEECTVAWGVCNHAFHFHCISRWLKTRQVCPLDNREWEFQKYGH
Experimental for RAW 264.7 cells: Assessments of drug anti-TNF-α and nitric oxide generation in RAW 264.7 cells: RAW 264.7 cells were purchased from ATCC Manassas, VA, USA). The cells were grown in DMEM media (Invitrogen, DMEM, high glucose, GlutaMAX Supplement, pyruvate, #10569-010) supplemented with 10% FBS (Invitrogen, Fetal Bovine Serum, qualified, heat inactivated, #16140-071) with penicillin and streptomycin (Invitrogen, Penicillin-Streptomycin (10,000 U/mL), #15140-122) and were maintained at 37 C and 5% CO2. The cells were grown to 75%-85% confluence on 10 cm plates (corning-Fal-con, #353003) following the protocol described by ATTC. to assess for drug effects on LPS-induced markers of inflammation, namely TNF-α protein and nitrite ion levels (NO2, a stable end-product of nitric oxide metabolism) cells were seeded into 24 well (VWR, #10062-896) at a density of 200×10^3 cells per well. On each plate there was one blank well where no cells were added yet culture media in the well was treated similarly to wells with cells (n=1). The blank well media was used for background subtraction for various downstream assays. twenty-four hours after seeding the plate the seeding media was replaced with fresh media. Two hours after this the cells were exposed to a range of concentrations of drug test-compound(s) dissolved in 100% tissue culture grade dimethyl sjloxide (DMSO, SIGMA #D2650). Drug stocks were prepared in a 200 times more concentrated stock in DMSO. The final concentration of DMSO added to the cells was 0.5%. The effects of each concentration of drug were assessed in 4 wells per concentration in the 24 well plate (n=3 #-4). On each plate one set of wells were assigned as drug-vehicle control (i.e. DMSO), one test compound was assessed on one 24 well plate. […] One hour after the drugs were added the cells were challenged with lipopolysaccharide (LPS, SIGMA, serotype 055:B5) at a final concentration of 60 ng/ml. Twenty to twenty-four hours after the cells were challenged with LPS the culture media was collected and utilized for the measurement of markers of inflammation.
Cellular viability assessment of drug treated RAW 264.7 cells: RAW 264.7 cell viability was determined by use of the CellTiter 96 AQueous One Solution Cell Proliferation Assay (Promega, Madison, WI). Changes in cellular health status were determined by use of indirect measures related to the formation of a colored tetrazolium dye product that can be measured spectrophotometrically at 490 nm. An increase in absorbance at 490 nm is indicative of an increase in numbers of healthy cells; similarly a reduction in absorbance is indicative of a reduction of healthy cells. After the culture media was harvested for use in TNF-α and NO2— ion assays, the media was replaced with 0.5 mL of fresh media plus 100 μL of the cell viability reaction mixture. After a 20-30 min incubation at 37° C. with 5% CO2 the absorbance at 490 nm was obtained using an infinite M200 PRO plate reader (TECAN, USA).
Statistical analyses for RAW-derived assays: Data are expressed as a percentage change from the DMSO-vehicle control measurements. Measurements are expressed as mean±standard errors, where the n number represents the number of wells in a 24 well plate. Due to the presence of one blank control well on each plate, for some drug concentrations the n number is 3 # and not 4. Statistical comparisons were undertaken by use of a One-Way ANOVA with appropriate Bonferroni corrections for multiple comparisons, as required (GraphPad InStat Version 3.05). P values of <0.05 are considered to be of statistical significance.
RAW 264.7 cell culture: RAW 264.7 mouse cells were purchased from ATCC (Manassas, VA, USA) and grown in DMEM media supplemented with 10% FCS, penicillin 100 U/ml and streptomycin 100 μg/ml (ThermoFisher Scientific, Asheville, NC, USA). The cells were maintained at 37° C. and 5% CO2.

With `Nc1ccc(F)c2c1C(=S)N(C1CCC(=S)NC1=O)C2=O` (centres unmarked) [Compound 30, 4-amino-7-fluoro-2-(2-oxo-6-thioxopiperidin-3-yl)-3-thioxoisoindolin-1-one], the lesion size result in the data set with CCI-induced TBI mice [1] (low dose 14.78 mg/kg, 2 weeks post-TBI, vs CMC) is “significant reduction of the lesion size”. Also, in the data set with CCI-induced TBI mice [2] (14.78, 29.57 mg/kg, 2 weeks after TBI), the “number of astrocytes (GFAP) in cortex” value was “significantly decreased the number of astrocytes”. Besides, the “number of branches, junctions, endpoints of microglial processes” value in the data set on CCI-induced TBI mice [2] (14.78, 29.57 mg/kg, ipsilateral cortex) is on record as “significantly rescue the morphological changes of microglia”. The “number of microglia induced by TBI” value in the data set on CCI-induced TBI mice [2] (cortex) is given as “subtle reduction, but not significant”. Moreover, in the data set with CCI-induced TBI mice [2] (ipsilateral cortex, 2 weeks after TBI), the “microglial ramification index and spanned area” value is “significantly ameliorated the morphological alteration of microglia”. Also, in the data set on RAW 264.7 cells (0.6-60 μM, LPS 60 ng/mL, 24 h), the cellular viability is more than 90%.
Usually pIC50 stands for the negative decadic logarithm of the IC50, by convention in mol/L. As for `O=C1c2c(F)c(F)c(F)c(F)c2C(=O)N1C1CC2CCC1C2` (stereo not drawn) [Compound 16, 2-Endo-(bicyclo[2.2.1]heptan-2-yl)-4,5,6,7-tetrafluoroisoindoline-1,3-dione], in data set [3], the pIC50 was less than 4.00 and the “cereblon binding (in words)” value was “did not bind cereblon”. In the data set with IFN-γ, the “Brain cortex IFN-γ levels (in words)” value is listed as “not impacted” and the “IFN-γ in plasma (in words)” value is recorded as “proved able to reduce this rise”. In addition, in the data set on IL-5, the “IL-5 expression in plasma (in words)” value was “reduced IL-5 expression in plasma”.
As a reminder, the cell viability is a read-out of living cells in per cent, often relative to untreated cells. Lower therefore signals a greater loss of cells. As to `CC1(C)[C@@H]2CC[C@@]1(C)[C@@H](N1C(=O)c3c(F)c(F)c(F)c(F)c3C1=O)C2` [Compound 14, 4,5,6,7-Tetrafluoro-2-((1R,2S,4R)-1,7,7-trimethylbicyclo[2.2.1]heptan-2-yl) isoindoline-1,3-dione], in data set [3], the negative logarithm of the IC50 (pIC50) was 4.27 and the “cereblon binding (in words)” value is reported as “did not bind cereblon”. In addition, in the data set with IFN-γ, the “Brain cortex IFN-γ levels (in words)” value was “not impacted” and the “IFN-γ in plasma (in words)” value is listed as “proved able to reduce this rise”. Further, the “IL-5 expression in plasma (in words)” value in the data set with IL-5 is on record as “reduced IL-5 expression in plasma”. Also, in the data set with CCI-induced TBI mice [1] (both doses, 2 weeks after TBI), the lateral ventricle size result was “did not reach statistical significance”. Further, the “loss of cortical tissue (lesion volume)” value in the data set with CCI-induced TBI mice [1] (higher dose 32.5 mg/kg, 2 weeks after TBI) is given as “failed to reach statistical significance”. Further, the “loss of cortical tissue (lesion volume)” value in the data set on CCI-induced TBI mice [1] (lower dose 16.25 mg/kg, 2 weeks after TBI) is on record as “reduce loss of cortical tissue”. The “microglial morphology (ramification index, spanned area, end points, branches, junctions), ipsilateral side” value in the data set on CCI-induced TBI mice [2] (lower and higher dose, 2 weeks after CCI) is “substantially counteracted these CCI-induced microglial phenotypic measures”. Moreover, the cell viability with RAW 264.7 cells (1 μM, RAW 264.7 cells) is listed as not below 94%. In the data set on RAW 264.7 cells (1 μM, RAW 264.7 cells, percentage of vehicle control value, mean ± S.E.M., n = 3), the “Cell Viability % Δ” value came out at 95 ± 4%. In the data set on RAW 264.7 cells (100-1000 nM, vs LPS+Vehicle), the “cell viability (in words)” value is recorded as “not significantly affected; also recorded: without impact on cell viability”.

These data come from US20260055061A1, “HALOPHTHALIMIDE COMPOUNDS AND METHODS OF USE AGAINST TBI, INFLAMMATORY DISORDER, AUTOIMMUNE DISORDER, NEURODEGENERATIVE DISEASE OR VIRAL INFECTION” (The United States of America, as represented by the …, priority 2022, published 2026).
